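Assay format: 96-well plates, 48-hour exposure. GI50 marks 50% less growth.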 Activity calls are given as the source filed them. Cut-off read from the data, not from the text of the source: active = GI50 up to about 1.1 µM and inactive = higher.
Experiments:
Assay in all cases: DTP human tumour cell line panel, 48 h
DLD-1 = system: DLD-1
DMS-273 = system: DMS-273
LXFL 529 = system: LXFL 529
M19-MEL = system: M19-MEL
RXF 631 = system: RXF 631
SNB-78 = system: SNB-78
XF498 = system: XF498
DMS-114 = system: DMS-114
HOP-18 = system: HOP-18

Measured: GI50

CCc1cccc(C)c1NC(=O)C1=C(C)NC(C)=C(C(=O)Nc2c(C)cccc2CC)C1c1ccc([N+](=O)[O-])cc1
inactive: DLD-1 29 µM | DMS-273 38.6 µM | LXFL 529 37.9 µM | M19-MEL 38.1 µM | RXF 631 29.1 µM | SNB-78 97.1 µM | XF498 19.4 µM

COc1cc2c(cc1OC)[C@@H]([C@H](O)c1ccccc1)NCC2
inactive: DLD-1 > 100 µM | DMS-114 > 100 µM | DMS-273 > 100 µM | HOP-18 > 100 µM | LXFL 529 > 100 µM | M19-MEL > 100 µM | RXF 631 > 97.3 µM | SNB-78 > 100 µM | XF498 > 100 µM

Cc1ccc(NC(=O)CC/C(CC(=O)C(C)(C)C)=N\Nc2ccc([N+](=O)[O-])cc2[N+](=O)[O-])cc1C
inactive: DLD-1 47.6 µM | DMS-114 30 µM | HOP-18 > 100 µM | LXFL 529 40.9 µM | M19-MEL 47.5 µM | RXF 631 > 100 µM | SNB-78 > 100 µM

NC1=NN(c2ccccc2)C(=O)C1C(=O)CCC(=O)Nc1cccc(Cl)c1 (stereo unspecified)
inactive: DLD-1 > 100 µM | DMS-114 > 100 µM | DMS-273 > 100 µM | HOP-18 > 100 µM | LXFL 529 > 100 µM | M19-MEL > 100 µM | SNB-78 > 100 µM | XF498 > 100 µM

CCOc1ccc(/C(Cl)=C(\C=O)c2ccc(OC)c(OC)c2)cc1OCC
inactive: DLD-1 68.7 µM | DMS-114 11 µM | DMS-273 45.8 µM | HOP-18 > 100 µM | LXFL 529 30.5 µM | M19-MEL 33 µM | SNB-78 36.8 µM | XF498 53.2 µM

COc1cc(C2C(Cl)C(=O)N2NC(=O)Cc2ccccc2)ccc1O (stereo unspecified)
inactive: DLD-1 > 100 µM | DMS-114 50.2 µM | DMS-273 > 100 µM | HOP-18 40.3 µM | LXFL 529 70.6 µM | M19-MEL > 100 µM | SNB-78 > 100 µM | XF498 > 100 µM

N#CC(c1ccccn1)c1nc2ccccc2[nH]1 (stereo unspecified)
inactive: DLD-1 98.9 µM | DMS-114 51.5 µM | LXFL 529 > 100 µM | M19-MEL > 100 µM | SNB-78 > 100 µM | XF498 64.4 µM

O=c1cc(-c2ccccc2)nc(/C=C(\O)c2ccncc2)n1-c1ccccc1
inactive: DLD-1 > 100 µM | DMS-114 > 100 µM | DMS-273 > 100 µM | HOP-18 > 100 µM | LXFL 529 > 100 µM | M19-MEL > 100 µM | SNB-78 > 100 µM

COc1ccc(C(C2=C(O)CC(C)OC2=O)C2=C(O)CC(C)OC2=O)cc1 (stereo unspecified)
inactive: DLD-1 > 100 µM | DMS-114 > 100 µM | DMS-273 > 100 µM | LXFL 529 > 100 µM | M19-MEL > 100 µM | RXF 631 > 100 µM | SNB-78 > 100 µM

OCC(O)C(OC1OC(CO)C(O)C(O)C1O)c1nn(-c2ccc(F)cc2)c2nc3cc(Cl)c(Cl)cc3cc12 (stereo unspecified)
inactive: DLD-1 > 100 µM | DMS-114 > 100 µM | LXFL 529 > 100 µM | M19-MEL > 100 µM | SNB-78 > 100 µM | XF498 > 100 µM

COc1ccc2[nH]c3c4c(c5cc(C(C)(C)C)ccc5c3c2c1)C(=O)N(c1ccccc1)C4=O
inactive: DLD-1 13.4 µM | DMS-114 > 100 µM | HOP-18 34.8 µM | LXFL 529 > 100 µM | M19-MEL > 100 µM | SNB-78 > 100 µM

CC(C)[C@H](COC(C)(C)C)/N=C/N1CSc2ccccc21
inactive: DLD-1 48.4 µM | DMS-114 21.8 µM | DMS-273 16.8 µM | LXFL 529 34.7 µM | M19-MEL 36.6 µM | RXF 631 27.4 µM | SNB-78 30 µM | XF498 16.9 µM

O=C(/N=C(\Nc1ccccc1)SCCS/C(=N/C(=O)c1cccs1)Nc1ccccc1)c1cccs1
inactive: DLD-1 40 µM | DMS-114 30.2 µM | DMS-273 58.7 µM | LXFL 529 46.9 µM | M19-MEL 53.8 µM | XF498 34.4 µM

CCCCCCCCCCCCC(Br)C(C)=O (stereo unspecified)
inactive: DLD-1 > 100 µM | DMS-114 > 100 µM | DMS-273 > 100 µM | HOP-18 > 100 µM | LXFL 529 > 100 µM | M19-MEL > 100 µM | RXF 631 > 100 µM | SNB-78 > 100 µM | XF498 > 100 µM

ClCc1ccc(C2OCCO2)cc1
inactive: DLD-1 17.2 µM | DMS-114 > 24 µM | DMS-273 18.3 µM | HOP-18 37.5 µM | LXFL 529 17.1 µM | M19-MEL 14 µM | RXF 631 > 100 µM | SNB-78 14.4 µM | XF498 18.8 µM

COc1ccc(/C=N/N=C(\N)NO)c(Cl)c1O
inactive: DLD-1 25.5 µM | DMS-114 5.9 µM | HOP-18 2.22 µM | LXFL 529 2.89 µM | M19-MEL 1.48 µM | SNB-78 34.1 µM

Cc1ccccc1NC(=O)/C=N/O
inactive: DLD-1 > 100 µM | DMS-114 > 100 µM | DMS-273 > 100 µM | HOP-18 > 100 µM | LXFL 529 > 100 µM | M19-MEL > 100 µM

COc1ccc(/C(Cl)=C(\C=O)c2ccc(OC)c(OC)c2)cc1OC
inactive: DLD-1 > 92 µM | DMS-114 > 90.2 µM | DMS-273 > 90.4 µM | HOP-18 > 98.2 µM | M19-MEL 99.3 µM | SNB-78 > 100 µM | XF498 > 88.9 µM

COC(c1ccccc1)C(c1ccccc1)N1CCOCC1 (stereo unspecified)
inactive: DLD-1 > 100 µM | DMS-114 > 100 µM | DMS-273 > 100 µM | HOP-18 > 100 µM | LXFL 529 > 100 µM | M19-MEL > 100 µM | SNB-78 > 100 µM | XF498 53 µM

O=C1C(Cl)C(c2ccccc2O)N1n1cnc2ccccc2c1=O (stereo unspecified)
inactive: DLD-1 67 µM | DMS-114 20 µM | DMS-273 63.4 µM | HOP-18 37 µM | LXFL 529 61.1 µM | M19-MEL 97.3 µM | SNB-78 26.2 µM | XF498 5.32 µM

O=C1Nc2ccccc2N=CC1NC(=O)C(c1ccccc1)c1ccccc1 (stereo unspecified)
inactive: DLD-1 > 100 µM | DMS-114 86.5 µM | DMS-273 > 100 µM | HOP-18 > 100 µM | LXFL 529 > 100 µM | M19-MEL > 100 µM | RXF 631 > 100 µM | SNB-78 > 100 µM

COC1CCC(OS(C)(=O)=O)C(CO)O1 (stereo unspecified)
inactive: DLD-1 > 100 µM | LXFL 529 > 100 µM | M19-MEL > 100 µM | XF498 > 100 µM

O=C(N/C(=C\c1ccc([N+](=O)[O-])cc1)c1nc2cc(Cl)ccc2[nH]1)c1ccccc1
inactive: DLD-1 13.5 µM | DMS-114 16.3 µM | LXFL 529 17.1 µM | M19-MEL 31.6 µM | SNB-78 23.8 µM | XF498 15.3 µM

CCNC(=O)COc1ccc(Cl)cc1Cl
inactive: DLD-1 > 100 µM | DMS-114 > 100 µM | DMS-273 > 100 µM | HOP-18 > 100 µM | LXFL 529 > 100 µM | M19-MEL > 100 µM | RXF 631 > 100 µM | SNB-78 > 100 µM

Cc1ccc(NC(=O)NC23CC4CC(CC(F)(C4)C2)C3)cc1
inactive: DLD-1 > 100 µM | DMS-114 46.6 µM | DMS-273 86.3 µM | LXFL 529 88.7 µM | M19-MEL > 100 µM | SNB-78 > 100 µM | XF498 > 100 µM

CS/C(=N\c1ccccc1Cl)NC(=O)c1ccc(Br)cc1
inactive: DLD-1 > 100 µM | DMS-114 > 100 µM | HOP-18 25.5 µM | LXFL 529 79.4 µM | M19-MEL > 100 µM | SNB-78 19.1 µM | XF498 46.2 µM

Cc1ccccc1NC(=O)/C(=N\NC(N)=S)C(C#N)c1ccccc1 (stereo unspecified)
inactive: DLD-1 > 100 µM | DMS-114 72.4 µM | DMS-273 > 100 µM | HOP-18 > 100 µM | LXFL 529 > 100 µM | M19-MEL > 100 µM | RXF 631 > 100 µM | SNB-78 > 100 µM

CC12CCC(=O)C[C@H]1CCC(OC=O)C2Br (stereo partly specified)
inactive: DLD-1 > 100 µM | DMS-114 > 100 µM | DMS-273 > 100 µM | HOP-18 > 100 µM | LXFL 529 > 100 µM | M19-MEL > 100 µM | XF498 > 100 µM

— ChEMBL document CHEMBL1201862, “PubChem BioAssay data set” (2004)
